Patent US11624022B2, “Preparation method for the plant-based nano corrosion inhibition bactericide for oilfield and application thereof” (Southwest Petroleum University, priority 2021, dated 2023)

Assays:
[1] = system: sulfate reducing bacteria (SRB); experiment: Sterilization performance test (serial dilution counting of SRB); format: cell-based; details: 60 mg/L, counted 24 hours later; for Number of SRB: no bactericide 2500000
Procedure: Before the test, all devices and glass containers were sterilized for 20 min at 121° C. The SRB strain was isolated from the formation water of an injection well in a shale gas field in China. SRB liquid medium was prepared according to NACE TMO194-94 standard.
The composition of the medium is as follows: Ig yeast powder, 0.1 g ascorbic acid, 0.2 g MgSO4·7H2O, 0.01 g K2HPO4, 10 g NaCl, 0.2 g (NH4)2Fe(SO4)2·6H2O, 4 mL sodium lactate, and 1000 mL deionized water. A portable pressure steam disinfection pot was used to sterilize the bacteria in the prepared medium. In the sterilization process, the temperature was kept at 120° C. for 15 min. It was then deoxidized with N2 for 2 h. 10% SRB was inoculated into the medium and placed in an incubator at 37° C. After 5 days, the number of SRB reached the peak value and remained stable.
Different bactericides were added into the cultured bacteria solution of 200 mL and counted 24 hours later.
Serial dilution method (triple repetition) was taken for the counting of SRB. Totally 10 dilution levels were provided. At each dilution level, there were three identical vials filled with 9 mL SRB medium. The measured sample of 1 mL was injected into a vial at the Level 0 and then shaken up. The 1 mL solution from the vial at the Level 0 was injected into a vial at the Level 1. The syringe for sampling the liquid each time was disposable to avoid affecting the final results. Similarly, the sample was diluted until the dilution reached Level 9. All vials were incubated at 35° C. for 14 days at a constant temperature.
The growth index should be determined according to the following principles: three dilution levels were selected from the dilution level at which negative vials appeared, and the number of positive vials was counted for each dilution level to obtain the index (When all the vials in a certain grade are negative, the previous grade is counted). The growth index (summarized according to 5.6.5.3 in SY/T 5329-1994) is obtained by multiplying the dilution factor 10^n of water sample (n is the number of dilutions before the index position). Check the corresponding bacteria count table and substitute the bacterial count detected by the index to get the content of this kind of bacteria in the water sample (Nr./mL).
The test results are shown in Table 1, in which the vials 1 to 10 are filled with 9 mL SRB medium (10^7). The dilution levels are numbered from Lev. 0 to Lev. 9. Take the measured sample of 1 mL into the Vial 1, indicating Level 0; take a new syringe and take 1 mL from Vial 1 to Vial 2, indicating Level 1; take a new syringe and take 1 mL from Vial 2 to Vial 3, indicating […]; the rest can be done in the same manner until 1 mL is taken from Vial 9 to Vial 10, indicating Level 9. “+” represents positive vial, and “−” represents negative vial.

[2] = Corrosion inhibition performance test (static uniform corrosion, SY/T 5273-2014); details: 60 mg/L; N80 steel, corrosive solution pH 6.5, 37° C., 14 days
Procedure: The corrosive solution of 1 L was prepared, the pH was adjusted to 6.5, and the temperature was 37° C. at a normal pressure. The N80 steel specimens were processed with specifications of 30*15*3 and placed in corrosive solution. Three specimens were placed in each vial and different corrosion inhibitors were added respectively. The experiment lasted for 14 days.
After the test, the specimens were cleaned with stripping solution (100 ml hydrochloric acid+10 g hexamethylenetetramine+900 mL deionized water), then dehydrated by ethanol and blow-dried with N2. The determination method for static uniform corrosion inhibition rate was evaluated with referring to the Performance Index and Evaluation Method of Corrosion Inhibitor for Oilfield Produced Water Treatment (SY/T 5273-2014), the oil and gas industry standard of the People's Republic of China. The formulas of uniform corrosion rate and corrosion inhibition efficiency are as follows:
The corrosion inhibition test results are shown in Table 3, in which the corrosion inhibitors 1, 2 and 3 commonly used in oilfields are respectively the lauric acid imidazoline, abietic acid imidazoline and tetradecyl trimethyl ammonium bromide.

Row | Compound | Growth index [1] | Sterilization rate [1] | Number of SRB [1] | Corrosion inhibition efficiency [2]
1 | O=CCCCC=O [Glutaraldehyde] | 200 | 64% | 900000 Nr./mL | 
2 | CCCCCCCCCCCCCC[N+](C)(C)C.[Br-] [Tetradecyl trimethyl ammonium bromide, tetradecyl trimethyl ammonium bromide] |  |  |  | 90.9%
3 | CCCCCCCCCCCC[N+](C)(C)Cc1ccccc1.[Cl-] [Traditional bactericide 1227] | 210 | 40% | 1500000 Nr./mL | 
4 | abietic acid imidazoline |  |  |  | 93.9%
5 | lauric acid imidazoline |  |  |  | 93.3%
